Measurements reported in patent US5246928A, “Thiadiazinones for stimulating cardiac activity” (Smith Kline & French Laboratories Limited, priority 1991, dated 1993).

What was measured:
[1] = system: left ventricular contractility; experiment: Cardiac Stimulant Activity - In vivo (Anaesthetised Cats): increase in left ventricular dp/dt max, i.v.; design: species or system cat; conditions: Felis catus, iv, read-out: ED50 (dose to increase left ventricular dp/dt max by 50%), pretreated with ganglion blocker and propranolol
PDE (Peak III) = experiment: Inhibition of PDE (Peak III) from cat heart; conditions: read-out: IC50 × 10^-6, 1 μM cyclic AMP, pH 7.5, 37°
Method: (§1) The enzyme was assayed by incubation at 37° for 4-30 min in 50 mM Tris, 5 mM MgCl2, pH 7.5 with [3-H] cyclic nucleotide (4×10^5 disintegrations min^-1) and [14-C] nucleotide 5' monophosphate (3×10^3 disintegrations min^-1). The assay was stopped by boiling, and the [3-H] […] The reaction mixture was diluted with 0.5 ml 100 mM HEPES (N-2-Hydroxyethylpiperazine-N'-2-ethanesulfonic acid), 100 mM NaCl, pH 8.5, and applied to the column. […] The recovery of product as judged by [14-C] recovery was approximately 80%. All assays were linear with time of incubation and concentration of enzyme over the range used in these experiments.

PDE (Peak I) = experiment: Substrate kinetics of PDE (Peak I) from cat heart; type: biochemical; conditions: without calmodulin
Method: as §1

[2] = system: left ventricular dp/dt max; experiment: Cardiac Stimulant Activity - In vivo (Conscious Dogs): left ventricular dp/dt max; design: species or system dog
Method: Cardiac Stimulant Activity-In vivo (Conscious Dogs)
Oral administration caused positive inotropic responses at doses of 0.05 mg/kg and below.

[3] = system: histamine-induced bronchoconstriction; experiment: Bronchodilatation in vivo: histamine-induced bronchoconstriction in anaesthetised guinea-pigs; design: species or system guinea-pig (Dunkin Hartley); conditions: guinea-pig, i.v.; in words
Method: Male guinea-pigs of the Dunkin Hartley strain (530 g±6 g) were anaesthetised with Sagatal (pentobarbital sodium) (90 mg/kg i.p.). Airway resistance was measured using a modification of the classical Konzett-Rossler technique (Versuchsanordnung zu Untersuchungen an der Bronchialmuskulatur. Naunyn-Schmiedebergs Arch. Exp. Path. Pharmak., 195: pp 71-74, (1940)). A dose of histamine which gave approximately 150% increase in airway resistance was selected for i.v. administration. Bolus doses of the compound of Example 1 were administered (i.v.) one minute before the histamine challenge.
The threshold dose for this compound was 1×10^-8 mol/kg.

[4] = in words, in contrast to Example 1

IC50 (PDE (Peak III)) [nM]	SMILES	ED50 [1] [µmol/kg]	other results
1320	CC12Cc3cc(-n4ccc(=O)cc4)ccc3C1=NNC(=O)S2 (stereo not shown) [Example 8, 7-(4-Oxo-1,4-dihydropyridin-1-yl)-9a-methyl-9,9a-dihydroindeno[1,2-e][1,3,4]thiadiazin-2(3H)-one]	0.07	–
3990	O=c1ccn(-c2ccc(-c3ccc(=O)[nH]n3)cc2)cc1 [Example 3, 6-[4-(4-Oxo-1,4-dihydropyridin-1-yl)phenyl]-3(2H)-pyridazinone]	0.47	–
6600	O=C1CC2CCc3cc(-n4ccc(=O)cc4)ccc3C2=NN1 (stereo not shown) [Example 13, 8-(4-Oxo-1,4-dihydropyridin-1-yl)-4,4a, 5,6-tetrahydrobenzo[h]cinnolin-3(2H)-one]	0.78	–
230	C[C@@H]1CC(=O)NN=C1c1ccc(-n2ccc(=O)cc2)cc1 [Example 16, (R)-5-Methyl-6-[4-(4-oxo-1,4-dihydropyridin-1-yl)phenyl]-4,5-dihydro-3(2H)-pyridazinone]	–	–
–	Nc1nc2c(ncn2[C@@H]2O[C@@H]3COP(=O)(O)O[C@H]3[C@H]2O)c(=O)[nH]1 [cyclic GMP]	–	Km (PDE (Peak I)): 1.8 µM; Relative Vmax (PDE (Peak I)): 1.1
2640	O=c1ccn(-c2ccc(-c3c[nH]c(=O)cn3)cc2)cc1 [Example 11, 5-[4-(4-Oxo-1,4-dihydropyridin-1-yl)phenyl]-2(1H)-pyrazinone]	–	–
1250	O=C1NN=C2c3ccc(-n4ccc(=O)cc4)cc3CC2S1 (stereo not shown) [Example 9, 7-(4-Oxo-1,4-dihydropyridin-1-yl)-9,9a-dihydroindeno[1,2-e][1,3,4]thiadiazin-2(3H)-one]	0.05	–
1750	O=C1NCC(c2ccc(-n3ccc(=O)cc3)cc2)=NN1 [Example 6, 6-[4-(4-Oxo-1,4-dihydropyridin-1-yl)phenyl]-4,5-dihydro-1,2,4-triazin-3(2H)-one]	0.23	–
1590	O=C1CSC(c2ccc(-n3ccc(=O)cc3)cc2)=NN1 [Example 4, 2-[4-(4-Oxo-1,4-dihydropyridin-1-yl)phenyl]-4H,6H-1,3,4-thiadiazin-5-one]	0.06	–
5090	O=C1CCC(c2ccc(-n3ccc(=O)cc3)cc2)=NN1 [Example 2, 6-[4-(4-Oxo-1,4-dihydropyridin-1-yl)phenyl]-4,5-dihydro-3(2H)-pyridazinone]	0.4	–
4330	O=C1COC(c2ccc(-n3ccc(=O)cc3)cc2)=NN1 [Example 5, 2-[4-(4-Oxo-1,4-dihydropyridin-1-yl)phenyl]-4H,6H-1,3,4-oxadiazin-5-one]	0.22	–
2260	O=c1ccn(-c2ccc(-c3n[nH]c(=O)s3)cc2)cc1 [Example 14, 5-[4-(4-Oxo-1,4-dihydropyridin-1-yl)phenyl]-1,3,4-thiadiazol-2(3H)-one]	0.82	–
2580	C[C@H]1CC(=O)NN=C1c1ccc(-n2ccc(=O)cc2)cc1 [Example 17, (S)-5-Methyl-6-[4-(4-oxo-1,4-dihydropyridin-1-yl)phenyl]-4,5-dihydro-3(2H)-pyridazinone]	–	–
440	CC1SC(=O)NN=C1c1ccc(-n2ccc(=O)cc2)cc1 (stereo not shown) [Example 10, 5-[4-(4-Oxo-1,4-dihydropyridin-1-yl)phenyl]-6-methyl-3H,6H-1,3,4-thiadiazin-2-one]	0.07	–
410	CC1CC(=O)NN=C1c1ccc(-n2ccc(=O)cc2)cc1 (stereo not shown) [Example 1, 5-Methyl-6-[4-(4-oxo-1,4-dihydropyridin-1-yl)phenyl]-4,5-dihydro-3(2H)-pyridazinone]	–	changes in blood pressure or heart rate ([2]; conscious dogs): without changes in blood pressure or heart rate; duration of positive inotropic responses ([2]; conscious dogs, 3 hours = maximum duration of measurement): more than 3 hours; 'force-rate' selectivity ([2]; conscious dogs, in words): particularly beneficial; effect on histamine-induced bronchoconstriction [3]: reduced the histamine-induced bronchoconstriction
–	Nc1cc(-c2ccncc2)c[nH]c1=O [Amrinone, reference compound]	–	activity in comparison with compound of Example 1 [2, 4]: less active; duration in comparison with compound of Example 1 [2, 4]: shorter duration
540	CC1NC(=O)NN=C1c1ccc(-n2ccc(=O)cc2)cc1 (stereo not shown) [Example 7, 6-[4-(4-Oxo-1,4-dihydropyridin-1-yl)phenyl]-5-methyl-4,5-dihydro-1,2,4-triazin-3(2H)-one]	0.11	–
